Patent publication EP4603105A1, “PHARMACEUTICAL COMPOSITION CONTAINING CYCLIC COMPOUND HAVING SELECTIVE KRAS INHIBITORY EFFECT AGAINST HRAS AND NRAS” (CHUGAI SEIYAKU KABUSHIKI KAISHA, priority 2022, dated 2024)

Experiments:
[1] = biological target: GDP-bound KRAS wild-type protein (Homo sapiens, UniProt P01116); test: Binding to KRAS by surface plasmon resonance (SPR), dissociation constant KD
Method in brief: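 SPR, 30°C: Avi-biotin RAS·GDP captured via Biotin CAPture (~100–300 RU); running buffer HBS pH 7.4, 1 mM DTT, 10 mM MgCl2, 0.01% Tween 20, 10 µM GDP, 4% DMSO. Single-cycle kinetics, 100 µL/min, 75 s injections; 1:1 model → KD.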

[2] = biological target: GDP-bound NRAS wild-type protein (Homo sapiens, UniProt P01111); test: Binding to NRAS by surface plasmon resonance (SPR), KD and KD ratio to KRAS
Sequence of GDP-bound NRAS wild-type protein (P01111 whole entry): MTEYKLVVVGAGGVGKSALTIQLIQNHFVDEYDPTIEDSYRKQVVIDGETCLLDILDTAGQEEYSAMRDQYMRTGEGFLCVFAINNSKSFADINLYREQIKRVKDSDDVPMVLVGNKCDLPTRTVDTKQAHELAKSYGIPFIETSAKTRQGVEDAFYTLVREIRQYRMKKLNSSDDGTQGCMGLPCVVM
Method in brief: (§1)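 Single-cycle kinetics on GDP-loaded biotin-Avi RAS captured to ~100–300 RU; 75 s ascending injections, 100 µL/min, 30°C. HBS pH 7.4 + 10 mM MgCl2/10 µM GDP/4% DMSO. 1:1 fit, KD.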

[3] = biological target: HRAS wild-type protein (Homo sapiens, UniProt P01112); test: Binding to HRAS by surface plasmon resonance (SPR), KD and KD ratio to KRAS
Sequence of HRAS wild-type protein (P01112 whole entry): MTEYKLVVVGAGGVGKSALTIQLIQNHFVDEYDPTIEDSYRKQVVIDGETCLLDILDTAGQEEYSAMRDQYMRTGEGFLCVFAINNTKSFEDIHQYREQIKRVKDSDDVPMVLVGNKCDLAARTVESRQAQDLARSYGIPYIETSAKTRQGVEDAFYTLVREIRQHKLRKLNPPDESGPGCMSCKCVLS
Method in brief: as §1

[4] = system: human lung cancer strain NCI-H441; type: cell-based
Method in brief: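 Proliferation was scored by […] measured after the reagent was added to cultures kept at 37°C in 5% carbon dioxide.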

[5] = Single Cycle Kinetics, 1:1 binding model
[6] = ratio of the KD value with respect to GDP-bound NRAS wild-type protein to the KD value with respect to KRAS
[7] = ratio of the KD value with respect to HRAS wild-type protein to the KD value with respect to KRAS
[8] = ratio of KD for GDP-bound NRAS wild-type protein to KD for KRAS
[9] = ratio of KD for HRAS wild-type protein to KD for KRAS
[10] = ratio of KD value for GDP-bound NRAS wild-type protein to KD value for KRAS (SPR)
[11] = ratio of KD value for HRAS wild-type protein to KD value for KRAS (SPR)

Sequence of GDP-bound KRAS wild-type protein (P01116 1-188 isoform P01116-2): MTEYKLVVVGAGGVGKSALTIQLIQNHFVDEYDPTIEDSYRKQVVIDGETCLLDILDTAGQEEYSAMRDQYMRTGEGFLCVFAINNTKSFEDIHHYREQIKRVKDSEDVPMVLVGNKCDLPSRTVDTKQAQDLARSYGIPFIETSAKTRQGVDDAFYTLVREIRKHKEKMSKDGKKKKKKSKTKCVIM

Structure (SMILES)	Kd [1, 5]	IC50 [4]	Kd ([1]; 1:1 binding model)	Kd ([1]; Single Cycle Kinetics)	NRAS /KRAS [2, 6]	HRAS /KRAS [3, 7]	NRAS /KRAS [2, 8]	HRAS /KRAS [3, 9]	NRAS /KRAS [2, 10]	HRAS /KRAS [3, 11]
CC[C@H](C)[C@@H]1NC(=O)[C@H](CC(C)C)N(C)C(=O)C[C@@H](C(=O)N2CCOCC2)N(C)C(=O)[C@H](C2CCCC2)N(C)C(=O)C2(CCCC2)NC(=O)[C@@H]2CCCN2C(=O)[C@H](CCc2ccc(C(F)(F)F)c(Cl)c2)NC(=O)CN(C)C(=O)[C@H](Cc2ccc(OC)cc2)N2C/C=C\CC[C@@H](C2=O)N(C)C(=O)CN(C)C1=O [PP0609]	3.9 nM	468 nM	–	–	B (a compound having 3 or more and less than 10 is denoted as B)	B (a compound having 3 or more and less than 10 is denoted as B)	–	–	–	–
CCO[C@@H]1C[C@H]2C(=O)NC3(CCC3)C(=O)N(C)[C@@H](C3CCCC3)C(=O)N(C)[C@H](C(=O)N(C)C)CC(=O)N(C)[C@@H](CC3CCCCC3)C(=O)N[C@@H]([C@@H](C)CC)C(=O)N(C)CC(=O)N(C)[C@H]3CCCCCN(C3=O)[C@@H](Cc3ccc(C(F)(F)F)cc3)C(=O)N(C)CC(=O)N[C@@H](CCc3cc(F)c(C(F)(F)F)c(F)c3)C(=O)N2C1 [PP0671]	0.67 nM	32.5 nM	–	–	B (a compound having 3 or more and less than 10 is denoted as B)	B (a compound having 3 or more and less than 10 is denoted as B)	–	–	–	–
CC[C@H](C)[C@@H]1NC(=O)[C@H](CC(C)C)N(C)C(=O)C[C@@H](C(=O)N2CCOCC2)N(C)C(=O)[C@H](C2CCCC2)N(C)C(=O)C2(CCCC2)NC(=O)[C@@H]2CCCN2C(=O)[C@H](CCc2ccc(C(F)(F)F)c(Cl)c2)NC(=O)CN(C)C(=O)[C@H](Cc2ccccc2)N2CCCCC[C@@H](C2=O)N(C)C(=O)CN(C)C1=O [PP0611]	0.73 nM	88.9 nM	–	–	B (a compound having 3 or more and less than 10 is denoted as B)	B (a compound having 3 or more and less than 10 is denoted as B)	–	–	–	–
CCO[C@@H]1C[C@H]2C(=O)NC3(CCC3)C(=O)N(C)[C@@H](C3CCCC3)C(=O)N(C)[C@H](C(=O)N(C)C)CC(=O)N(C)[C@@H](CC)C(=O)N[C@@H]([C@@H](C)CC)C(=O)N3CCCC[C@H]3C(=O)N(C)[C@H]3C/C=C\CCN(C3=O)[C@@H](Cc3ccc(C(F)(F)F)cc3)C(=O)N(C)CC(=O)N[C@@H](CCc3cc(F)c(C(F)(F)F)c(F)c3)C(=O)N2C1 [PP1058]	–	599 nM	–	2.9 nM	–	–	A (a compound having 10 or more and less than 20 is denoted as A)	B (a compound having 3 or more and less than 10 is denoted as B)	–	–
CCCOC[C@H]1C(=O)N[C@@H]([C@@H](C)CC)C(=O)N(C)CC(=O)N(C)[C@H]2C/C=C\CCN(C2=O)[C@@H](Cc2ccc(C)cc2)C(=O)N(C)CC(=O)N[C@@H](CCc2cc(F)c(C(F)(F)F)c(F)c2)C(=O)N2C[C@H](C)C[C@H]2C(=O)NC2(CCCC2)C(=O)N(C)[C@@H](C2CCCC2)C(=O)N(C)[C@H](C(=O)N(C)C)CC(=O)N1C [PP2225]	0.2 nM	41.4 nM	–	–	A (a compound having 10 or more and less than 20 is denoted as A)	A (a compound having 10 or more and less than 20 is denoted as A)	–	–	–	–
CCO[C@@H]1C[C@H]2C(=O)NC3(CCC3)C(=O)N(C)[C@@H](C3CCCC3)C(=O)N(C)[C@H](C(=O)N(C)C)CC(=O)N(C)[C@@H](CC(C)C)C(=O)N[C@@H]([C@@H](C)CC)C(=O)N(C)CC(=O)N(C)[C@H]3CCCCCN(C3=O)[C@@H](Cc3ccc(C(F)(F)F)cc3)C(=O)N(C)CC(=O)N[C@@H](CCc3cc(F)c(C(F)(F)F)c(F)c3)C(=O)N2C1 [PP0469]	0.76 nM	36.1 nM	–	–	B (a compound having 3 or more and less than 10 is denoted as B)	B (a compound having 3 or more and less than 10 is denoted as B)	–	–	–	–
CCO[C@@H]1C[C@H]2C(=O)NC3(CCC3)C(=O)N(C)[C@@H](C3CCCC3)C(=O)N(CCc3ccccc3)[C@H](C(=O)N3CCOCC3)CC(=O)N(C)[C@@H](CC(C)C)C(=O)N[C@@H]([C@@H](C)CC)C(=O)N(C)CC(=O)N(C)[C@H]3CCCCCN(C3=O)[C@@H](Cc3ccc(C(F)(F)F)cc3)C(=O)N(C)CC(=O)N[C@@H](CCc3cc(F)c(C(F)(F)F)c(F)c3)C(=O)N2C1 [PP0642]	110 nM	2650 nM	–	–	B (a compound having 3 or more and less than 10 is denoted as B)	B (a compound having 3 or more and less than 10 is denoted as B)	–	–	–	–
CC[C@H](C)[C@@H]1NC(=O)[C@H](CC(C)C)N(C)C(=O)C[C@@H](C(=O)N2CCOCC2)N(C)C(=O)[C@H](C2CCCC2)N(C)C(=O)C2(CCC2)NC(=O)[C@]2(C)CCCN2C(=O)[C@H](CCc2cc(F)c(C(F)(F)F)c(F)c2)NC(=O)CN(C)C(=O)[C@H](Cc2ccc(C(F)(F)F)cc2)N2CCCCC[C@@H](C2=O)N(C)C(=O)CN(C)C1=O [PP0817]	–	112 nM	–	0.36 nM	–	–	A (a compound having 10 or more and less than 20 is denoted as A)	B (a compound having 3 or more and less than 10 is denoted as B)	–	–
CCO[C@@H]1C[C@H]2C(=O)NC3(CCC3)C(=O)N(C)[C@@H](C3CCCC3)C(=O)N(C)[C@H](C(=O)N(C)C)CC(=O)N(C)[C@@H](CC3CCCC3)C(=O)N[C@@H]([C@@H](C)CC)C(=O)N(C)CC(=O)N(C)[C@H]3C/C=C\CCN(C3=O)[C@@H](Cc3ccc(C)cc3)C(=O)N(C)CC(=O)N[C@@H](CCc3ccc(C(F)(F)F)c(C4CC4)c3)C(=O)N2C1 [PP2681]	–	29.1 nM	0.37 nM	–	–	–	A (a compound having 10 or more and less than 20 is denoted as A)	A (a compound having 10 or more and less than 20 is denoted as A)	–	–
CCO[C@@H]1C[C@H]2C(=O)NC3(CCC3)C(=O)N(C)[C@@H](C3CCCC3)C(=O)N(C)[C@H](C(=O)N(C)C)CC(=O)N(C)[C@@H](CC3CCCC3)C(=O)N[C@@H]([C@@H](C)CC)C(=O)N(C)CC(=O)N(C)[C@H]3C/C=C\CCN(C3=O)[C@@H](Cc3ccc(C)cc3)C(=O)N(C)CC(=O)N[C@@H](CCc3ccc(C4CC4)c(Cl)c3)C(=O)N2C1 [PP2684]	–	57.9 nM	0.43 nM	–	–	–	A (a compound having 10 or more and less than 20 is denoted as A)	A (a compound having 10 or more and less than 20 is denoted as A)	–	–

Stronger by IC50 [4], values ahead:

Kd [1, 5]	IC50 [4]	Kd ([1]; 1:1 binding model)	Kd ([1]; Single Cycle Kinetics)	Structure (SMILES)	NRAS /KRAS [2, 6]	HRAS /KRAS [3, 7]	NRAS /KRAS [2, 8]	HRAS /KRAS [3, 9]	NRAS /KRAS [2, 10]	HRAS /KRAS [3, 11]
0.41 nM	8.5 nM	–	–	CCC[C@H]1C(=O)N[C@@H]([C@@H](C)CC)C(=O)N(CCC)CC(=O)N(C)[C@H]2C/C=C\CCN(C2=O)[C@@H](Cc2ccc(C)cc2)C(=O)N(C)CC(=O)N[C@@H](CCc2ccc(C(F)(F)F)c(OC)c2)C(=O)N2C[C@H](OCC)C[C@H]2C(=O)NC2(CC(C)(C)C2)C(=O)N(C)[C@@H](C2CCCC2)C(=O)N(C)[C@H](C(=O)N(C)C)CC(=O)N1C [PP2054]	A (a compound having 10 or more and less than 20 is denoted as A)	A (a compound having 10 or more and less than 20 is denoted as A)	–	–	–	–
–	23 nM	1.9 nM	–	CCO[C@@H]1C[C@H]2C(=O)NC3(CC(C)(C)C3)C(=O)N(C)[C@@H](C3CCCC3)C(=O)N(C)[C@H](C(=O)N(C)CC)CC(=O)N(C)[C@H]3CC/C=C/c4ccc(cc4)C[C@@H](C(=O)N(C)CC(=O)N[C@@H](CCc4ccc(Cl)c(Cl)c4)C(=O)N2C1)N1CC/C=C\C[C@@H](C1=O)N(C)C(=O)CN(C1CC1)C(=O)[C@H]([C@@H](C)CC)NC3=O [PP2598]	–	–	A (a compound having 10 or more and less than 20 is denoted as A)	A (a compound having 10 or more and less than 20 is denoted as A)	–	–
0.14 nM	7.6 nM	–	–	CCCC[C@H]1C(=O)N[C@@H]([C@@H](C)CC)C(=O)N(C)CC(=O)N(C)[C@H]2C/C=C\CCN(C2=O)[C@@H](Cc2ccc(C(F)(F)F)cc2)C(=O)N(C)CC(=O)N[C@@H](CCc2cc(F)c(C(F)(F)F)c(F)c2)C(=O)N2C[C@H](OCC)C[C@H]2C(=O)NC2(CCC2)C(=O)N(C)[C@@H](C2CCCC2)C(=O)N(C)[C@H](C(=O)N(CC)CC)CC(=O)N1C [PP1576]	–	–	–	–	AA (a compound having 20 or more is denoted as AA)	A (a compound having 10 or more and less than 20 is denoted as A)
–	19.4 nM	0.33 nM	–	CCO[C@@H]1C[C@H]2C(=O)NC3(CC(C)(C)C3)C(=O)N(C)[C@@H](C3CCCC3)C(=O)N(C)[C@H](C(=O)N(C)C)CC(=O)N(C)[C@@H]([C@@H](C)OC)C(=O)N[C@@H]([C@@H](C)CC)C(=O)N(C3CC3)CC(=O)N(C)[C@H]3C/C=C\CCN(C3=O)[C@@H](Cc3ccc(C)cc3)C(=O)N(C)CC(=O)N[C@@H](CCc3cc(F)c(C(F)(F)F)c(F)c3)C(=O)N2C1 [PP3211]	–	–	A (a compound having 10 or more and less than 20 is denoted as A)	A (a compound having 10 or more and less than 20 is denoted as A)	–	–
0.074 nM	3.5 nM	–	–	CCC[C@H]1C(=O)N[C@@H]([C@@H](C)CC)C(=O)N(C)CC(=O)N(C)[C@H]2C/C=C\CCN(C2=O)[C@@H](Cc2ccc(C)cc2)C(=O)N(C)CC(=O)N[C@@H](CCc2ccc(C(F)(F)F)c(OC)c2)C(=O)N2C[C@@H](C)C[C@H]2C(=O)NC2(CC(C)(C)C2)C(=O)N(C)[C@@H](C2CCCC2)C(=O)N(C)[C@H](C(=O)N(C)C)CC(=O)N1C [PP1888]	–	–	–	–	A (a compound having 10 or more and less than 20 is denoted as A)	B (a compound having 3 or more and less than 10 is denoted as B)
